Laboratory results reported in PubChem BioAssay AID624167 (Sanford-Burnham Center for Chemical Genomics, 2012).
Activity calls are given as the source filed them.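 How the source made its calls: active means mean IC50 for reducing PEG3 promoter reporter signal at or below a set limit, with IC50 above the limit in both counter screens; inactive means the rest, including counter screen hits.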

Tests used:
[1] = Peg3 promoter luciferase inhibitors, potency, dose response, cell-based, HeLa, CREF/GAPDH counter-screen panel (AID 624167); settings: CREF/GAPDH counter-screens; GAPDH; mean of runs
[2] = tested on: Rat fibroblasts (CREF); assay: as above; settings: CREF/GAPDH counter-screens
[3] = tested on: GAPDH; assay: as above; settings: CREF/GAPDH counter-screens
[4] = tested on: PEG-3; assay: as above; settings: HeLa PEG-Prom luciferase reporter, overnight, CREF/GAPDH counter-screens
[5] = target: PEG-3 (UniProt Q6IN02); assay: as above; settings: HeLa PEG-Prom luciferase reporter, overnight, CREF/GAPDH counter-screens, mean of runs
Sequence of PEG-3 (UniProt Q6IN02) (Q6IN02 whole entry, looked up): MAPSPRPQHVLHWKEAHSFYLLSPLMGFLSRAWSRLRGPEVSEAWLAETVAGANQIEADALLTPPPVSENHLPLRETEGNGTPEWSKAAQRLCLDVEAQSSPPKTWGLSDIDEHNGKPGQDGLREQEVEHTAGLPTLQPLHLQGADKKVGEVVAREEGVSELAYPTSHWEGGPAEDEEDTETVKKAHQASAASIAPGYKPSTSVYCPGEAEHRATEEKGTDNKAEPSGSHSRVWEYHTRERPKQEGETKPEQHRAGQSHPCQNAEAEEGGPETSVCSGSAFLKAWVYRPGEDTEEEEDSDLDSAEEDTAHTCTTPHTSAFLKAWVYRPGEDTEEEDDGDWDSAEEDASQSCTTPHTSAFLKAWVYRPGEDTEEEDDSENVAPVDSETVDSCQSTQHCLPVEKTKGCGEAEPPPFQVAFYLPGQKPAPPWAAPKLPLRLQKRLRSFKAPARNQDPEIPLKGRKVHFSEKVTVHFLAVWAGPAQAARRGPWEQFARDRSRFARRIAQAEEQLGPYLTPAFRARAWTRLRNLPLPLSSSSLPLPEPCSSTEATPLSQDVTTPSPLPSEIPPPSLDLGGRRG

[6] = run 1, dose range 1, individual replicate IC50 per panel
[7] = run 2, dose range 1, individual replicate IC50 per panel

Row | Compound | IC50 [1] | IC50 ([2]; mean of runs) | IC50 [2, 6] | IC50 [2, 7] | IC50 [3, 6] | IC50 [3, 7] | IC50 [4, 6] | IC50 [4, 7] | IC50 [5]
1 | CCSc1nc2ccccc2n1C(=O)/C=C\c1ccc(OC)c(OC)c1 | 14.6 µM | 72.8 µM (inactive) | 45.7 µM | > 100 µM | 14.2 µM | 15 µM | 4.86 µM | 6.08 µM | 5.47 µM
2 | CN1CCC2(CC1)N=C(c1ccc(F)cc1)C(=S)N2C(=O)c1ccc(C(C)(C)C)cc1 | 20.5 µM | 36.5 µM | 28.6 µM | 44.5 µM | 20.4 µM | 20.6 µM | 6.48 µM | 1.01 µM | 3.75 µM
3 | CCc1ccn2cc(-c3ccc4c(c3)OCO4)nc2c1 | 6.32 µM | 50.4 µM (inactive) | 0.748 µM | > 100 µM | 3.75 µM | 8.89 µM | 1.97 µM | 12.4 µM | 7.2 µM
4 | O=C(O)c1ccc(CN2C(=O)c3cccc4c([N+](=O)[O-])ccc(c34)C2=O)cc1 | 22.7 µM | 31.5 µM | 29.5 µM | 33.4 µM | 21.9 µM | 23.4 µM | 12.1 µM | 8.2 µM | 10.1 µM
5 | CCCC(=O)NC(c1ccc(N(C)C)cc1)c1ccc2cccnc2c1O (stereo not drawn) | > 100 µM (inactive) | 72.3 µM (inactive) | > 100 µM | 44.7 µM | > 100 µM | > 100 µM | 2.74 µM | 0.758 µM | 1.75 µM
6 | CCC(c1nnnn1-c1ccc2c(c1)OCCO2)N1CCC(n2c(=O)[nH]c3ccccc32)CC1 (stereo not drawn) | 10.8 µM | > 100 µM (inactive) | > 100 µM | > 100 µM | 9.08 µM | 12.6 µM | 4.46 µM | 10.2 µM | 7.33 µM
7 | C=Cc1cc(OC)c2c(c1)c(=O)oc1c2cc(OC)c2c(O)ccc(C3OC(C)C(O)C(C)(O)C3O)c21 (stereo not drawn) | inactive | > 100 µM (inactive) | > 100 µM | > 100 µM | > 100 µM | 64.1 µM | 2.17 µM | 2.96 µM | 2.56 µM
8 | COc1cc(OC)c2cc(C(=O)N/N=C/c3ccccc3O)[nH]c2c1 | inactive | 28.8 µM | 24.8 µM | 32.9 µM | 75.1 µM | 51.5 µM | 4.95 µM | 3.93 µM | 4.44 µM
9 | COc1ccc(/C=C2\SC(=S)N(CCCC(=O)NNC(=O)c3ccccc3O)C2=O)cc1 | inactive | 71.6 µM (inactive) | > 100 µM | 43.3 µM | 21.9 µM | > 100 µM | 6.31 µM | 1.41 µM | 3.86 µM
10 | Cc1ccc(OCC(=O)c2cc(C)n(Cc3ccco3)c2C)c([N+](=O)[O-])n1 | 13 µM | > 100 µM (inactive) | > 100 µM | > 100 µM | 7.31 µM | 18.7 µM | 6.5 µM | 7.13 µM | 6.81 µM
11 | COc1ccc(NC(=O)c2cc(-c3ccccn3)nc3ccccc23)cc1S(=O)(=O)N(C)C | inactive | > 100 µM (inactive) | > 100 µM | > 100 µM | > 100 µM | 43.6 µM | 1.12 µM | 0.329 µM | 0.724 µM
12 | O=C(Nc1ccccc1C(=O)Nc1nnc(C(F)(F)F)s1)c1ccccc1 | 7.97 µM | > 100 µM (inactive) | > 100 µM | > 100 µM | 2.28 µM | 13.7 µM | 7.01 µM | > 100 µM | inactive
